From US7776890B2, “1H-indazole compounds” (Eisai R&D Management Co., Ltd., priority 2005, dated 2010) come the findings set out here.

SMILES strings stand for the structures.

For this experiment, the target named is T1, Human JNK 3 (Homo sapiens, UniProt P53779).
T1 construct: made in house; host or cells: Escherichia coli
T1 sequence (P53779 whole entry): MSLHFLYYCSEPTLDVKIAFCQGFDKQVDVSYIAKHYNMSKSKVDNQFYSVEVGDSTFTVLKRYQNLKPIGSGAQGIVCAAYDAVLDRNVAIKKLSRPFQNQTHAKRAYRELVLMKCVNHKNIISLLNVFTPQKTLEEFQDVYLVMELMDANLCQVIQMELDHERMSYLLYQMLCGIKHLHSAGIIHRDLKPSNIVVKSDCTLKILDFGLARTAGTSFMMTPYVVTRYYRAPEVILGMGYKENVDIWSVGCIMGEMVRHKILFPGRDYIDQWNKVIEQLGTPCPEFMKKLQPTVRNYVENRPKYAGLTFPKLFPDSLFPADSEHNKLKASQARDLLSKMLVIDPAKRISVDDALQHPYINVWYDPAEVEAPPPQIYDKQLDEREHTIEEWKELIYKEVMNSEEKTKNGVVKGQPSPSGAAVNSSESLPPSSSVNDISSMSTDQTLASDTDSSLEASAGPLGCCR
As to the kind of experiment: Determination of JNK 3 Inhibition. It is filed as biochemical. Conditions: 50% inhibitory concentration on the enzymatic activity of JNK; GST-JNK 3, substrate GST-c-Jun, 3.33 μM of ATP, 30 minutes. On the procedure: Human JNK 3 was expressed as a fusion protein (GST-JNK 3) with glutathione S-transferase (GST) in Escherichia coli and was purified using glutathione Sepharose 4B beads. The amino acid sequence 1-169 of c-Jun was […] as a fusion protein (GST-c-Jun) with GST in Escherichia coli, was purified using glutathione Sepharose 4B beads and was used as a substrate. A test compound was diluted with 100% dimethyl sulfoxide into 10 mM and was then further diluted with 10% aqueous dimethyl sulfoxide solution to yield a dilution series. To each well of 96-well OPTI plate (available from Packard) were placed 20 μl of the diluted compound, 30 μl of a substrate solution (1.2 μg of GST-c-Jun, […], 0.2 μCi of [γ-^33P]ATP, 25 mM of HEPES pH=7.5, 10 mM of magnesium acetate, and 3.33 μM of ATP), and 50 μl of an enzyme solution (0.04 μg of GST-JNK 3, 25 mM of HEPES pH=7.5, and 10 mM magnesium acetate) up to 100 μl, and the mixture was allowed to react for 30 minutes. After terminating the reaction by adding 100 μl of a reaction terminator (80 mM ATP, 50 mg/ml glutathione SPA beads (available from Amersham Pharmacia Biotech)), the reaction mixture was shaken for 30 minutes. The mixture was centrifuged at room temperature at 1000×g for 5 minutes, and the emission intensity thereof was determined on a TopCount™ illuminator (available from Packard). The activity is expressed by the 50% inhibitory concentration on the enzymatic activity of JNK, i.e., IC50 (nM).
As to `O=C(Cc1cccs1)Nc1ccc2[nH]nc(-c3cccc(F)c3)c2c1` [Example I-16, N1-[3-(3-Fluorophenyl)-1H-5-indazolyl]-2-(2-thienyl)acetamide], the half-inhibitory concentration (IC50) is 51 nM. For the compound `O=C(c1ccccc1)c1ccc2[nH]nc(-c3cccc(F)c3)c2c1` [Example I-26, [3-(3-Fluorophenyl)-1H-5-indazolyl](phenyl)methanone], 113 nM corresponded to half-maximal inhibition (IC50). On to `O=C(Nc1ccc2[nH]nc(-c3cc4ccccc4o3)c2c1)c1ccco1` [Example I-48, N2-(3-Benzo[b]furan-2-yl-1H-5-indazolyl)-2-furamide], for which inhibition was half-maximal at 109 nM (IC50). `O=C(Nc1ccc2[nH]nc(-c3cc4ccccc4s3)c2c1)C1CCOC1` (centres unmarked) [Example I-55, N3-(3-Benzo[b]thiophen-2-yl-1H-5-indazolyl)tetrahydro-3-furancarboxamide] yielded an IC50 of 52 nM. `CS(=O)(=O)Nc1ccc2[nH]nc(-c3ccc4ccccc4c3)c2c1` [Example I-94, N-[3-(2-Naphthyl)-1H-5-indazolyl]methanesulfonamide] showed an IC50 of 163 nM. For the compound `O=C(Nc1ccc2[nH]nc(-c3ccc4ccccc4c3)c2c1)C1CCNCC1` [Example I-104, N4-[3-(2-Naphthyl)-1H-5-indazolyl]-4-piperidinecarboxamide], the IC50 worked out at 55 nM. This IC50 lies about 3-fold lower than the previous one. Regarding `CC(=O)c1cccc(-c2n[nH]c3ccc(C(=O)N[C@@H](C)C(N)=O)cc23)c1` [Example I-132, N5-[(1S)-2-Amino-1-methyl-2-oxoethyl]-3-(3-acetylphenyl)-1H-5-indazolecarboxamide], the half-inhibitory concentration (IC50) was determined as 197 nM. Compound `O=C(NCCCN1CCCC1=O)c1ccc2[nH]nc(-c3cc4ccccc4s3)c2c1` [Example I-137, N5-[3-(2-Oxotetrahydro-1H-1-pyrrolyl)propyl]-3-benzo[b]thiophen-2-yl-1H-5-indazolecarboxamide] came in with an IC50 of 54 nM. `O=C(NC1CC1)c1ccc2[nH]nc(-c3cccc(F)c3)c2c1` [Example I-143, N5-Cyclopropyl-3-(3-fluorophenyl)-1H-5-indazolecarboxamide] came in with an IC50 of 221 nM. For the compound `O=C(Cc1ccsc1)Nc1ccc2[nH]nc(-c3cn4ccccc4n3)c2c1` [Example I-163, N1-(3-Imidazo[1,2-a]pyridin-2-yl-1H-5-indazolyl)-2-(3-thienyl)acetamide], the IC50 turned out to be 80 nM. Consider `COc1c(C(=O)NCc2ccco2)ccc2[nH]nc(-c3cccc(F)c3)c12` [Example II-5, 3-(3-Fluoro-phenyl)-4-methoxy-1H-indazole-5-carboxylic acid (furan-2-ylmethyl)-amide], for which the IC50 was 100 nM. Compound `COc1c(C(=O)NCC2CC2)ccc2[nH]nc(-c3cc4ccccc4o3)c12` [Example II-93, 3-Benzo[b]furan-2-yl-4-methoxy-1H-indazole-5-carboxylic acid cyclopropylmethyl-amide] showed an IC50 of 137 nM. As to `C[C@H](NC(=O)c1ccc2[nH]nc(-c3cc4ccccc4s3)c2c1F)C(N)=O` [Example II-126], the IC50 was found to be 143 nM. The IC50 values of the last two compounds are within 1.5-fold of each other. `O=C(Nc1cc2c(-c3ccc4ccccc4c3)n[nH]c2cc1F)C1CC1` [Example II-184, Cyclopropanecarboxylic acid {6-fluoro-3-naphthalen-2-yl-1H-indazol-5-yl}-amide]: the IC50 was determined as 86 nM. As to `O=C(Cc1cccs1)Nc1cc2c(-c3ccc4ccccc4c3)n[nH]c2cc1F` [Example II-189, N-(6-Fluoro-3-naphthalen-2-yl-1H-indazol-5-yl)-2-thiophen-2-yl-acetamide], the IC50 worked out at 194 nM.

Turning to `COc1cccc(C(=O)NCc2cc3c(-c4ccc5ccccc5c4)n[nH]c3cc2F)c1` [Example II-208, N-{6-Fluoro-3-naphthalen-2-yl-1H-indazol-5-ylmethyl}-3-methoxy-benzamide], the half-maximal inhibitory concentration (IC50) was 143 nM. This IC50 and that of the compound before are within 1.5-fold of each other. With `CS(=O)(=O)Nc1cc2c(-c3cc4ccccc4s3)n[nH]c2cc1F` [Example II-218, N-(3-Benzo[b]thiophen-2-yl-6-fluoro-1H-indazol-5-yl)-methanesulfonamide] the figure was 215 nM; with `O=C(N[C@@H]1CCOC1=O)c1cc(F)c2[nH]nc(-c3ccc4ccccc4c3)c2c1` [Example II-259, 7-Fluoro-3-naphthalen-2-yl-1H-indazole-5-carboxylic acid [(3R)-2-oxo-tetrahydrofuran-3-yl]amide], 148 nM; with `CCCOc1c(C(=O)N[C@H](CO)C(C)C)ccc2[nH]nc(-c3cc4ccccc4o3)c12` [Example II-281, 3-Benzo[b]furan-2-yl-4-propoxy-1H-indazole-5-carboxylic acid ((1S)-1-hydroxymethyl-2-methyl-propyl)-amide], 84 nM. As for `O=C(Cc1ccsc1)Nc1cc(F)c2[nH]nc(-c3cccc(F)c3)c2c1` [Example II-288, N-[7-Fluoro-3-(3-fluorophenyl)-1H-indazol-5-yl]-2-thiophen-3-ylacetamide], the figure is 71 nM.

By IC50 is commonly meant the concentration that inhibits the measured activity by half. A low value points to greater potency in that assay.
